Assay results from patent publication US20160010059A1, “EXPANSION OF HEMATOPOIETIC PROGENITOR CELLS BY HISTONE METHYLTRANSFERASE G9a INHIBITION” (The Regents of the University of California, priority 2013, published 2016).
Entries after “also recorded” stand apart in the source; their conditions may differ.

Columns and labels:
[1] = system: histone acetylation; assay: Histone western blot after HDAC inhibitor treatment (assay sensitivity control); type: cell-based, mouse; settings: 37° C. for 2 hours
Experimental: (§1) For western blot, FACS sorted cells were lysed in RIPA buffer, and run in a 15% gradient SDS-page (BIO-RAD). Histone modifications were assessed with antibodies against H3k27me3 (07-449 Millipore), H3 Acetylated (06-599), H4K16Ac (07-329), H3k4me3 (07-473), total H3 (06-755), H3k36me3 (Ab9050 abcam), H3k9me2 (Ab1220), H3k9me3 (Ab8898). Cells were incubated with the HDAC inhibitor trichostatin A (Cell signaling) at 37° C. for 2 hours to induce histone acetylation. For immunostaining cells were sorted onto poly-lysine coated slides, fixed with 2% PFA, permeabilized with 0.1% triton-x in PBS, and stained with H3k9me3 (Ab8898), Lamin B (sc-6217) antibodies followed by an Alexa488-Donkey-α-goat and a Alexa594-goat-α-rabbit secondary antibody (Invitrogen) plus DAPI. Images were acquired using a PerkinElmer Volocity spinning disk confocal microscope. Image analysis was done using ImageJ software (Schneider et al., 2012).

[2] = system: H3K9me2 / H3K9me3; assay: Histone western blot and immunofluorescence in UNC0638 treated cells; type: cell-based, mouse
Experimental: as §1

[3] = system: H3k9me2 on putative G9a targets; assay: ChIP-qPCR of histone marks on putative G9a targets identified by RNA-seq; type: cell-based, mouse; settings: n=3
[4] = system: lethally irradiated C57BL/6 mice; assay: Transplantation of cultured HSCs into lethally irradiated mice (chimerism); type: in vivo, mouse
[5] = system: HSC-related genes; assay: Global gene expression analysis (RNA-seq) of KLS fractions after 5 days in vitro culture; type: cell-based, mouse; settings: 5 days culture
[6] = system: KLS cells; assay: Replating of cultured cells into liquid culture with SCF and TPO (proliferation capacity); type: cell-based, mouse

CC(/C=C/C(=O)NO)=C\[C@@H](C)C(=O)c1ccc(N(C)C)cc1 [trichostatin A]
global levels of histone acetylation [1]: significantly increased the global levels of histone acetylation

COc1cc2c(NC3CCN(C(C)C)CC3)nc(C3CCCCC3)nc2cc1OCCCN1CCCC1 [UNC0638]
amount of H3K9me2 by western blot ([2]; UNC0638 treated cells): effect is highly enriched in the KLS fraction
distribution of H3K9me3 by immunofluorescence ([2]; compared to the DMSO treated control): more disperse distribution of this histone mark
levels of H3k9me2 on putative G9a targets [3]: significantly lower amount of H3K9me2 at their promoter; also recorded: significantly reduced levels of H3k9me2
levels of H3k9me3 on putative G9a targets [3]: trend to lower amount of H3K9me3; also recorded: mild trend toward H3k9me3 reduction
levels of active mark H3K4me3 on putative G9a targets [3]: no differences for the active mark H3K4me3
lineage readout after transplantation ([4]; 24 hrs or 5 days culture): no defects in lineage potential; also recorded: readout in all 5 lineages
Percentage of chimerism / engraftment ([4]; cells cultured for 24 hrs with UNC0638 before transplantation, n=10 per group): minor increase in engraftment; also recorded: positive trend in higher chimerism for UNC0638 treated cells in all myeloid and lymphoid lineages, though not significant
Percentage of chimerism / engraftment ([4]; cells cultured for 5 days on AFT024 feeder layers with UNC0638 before transplantation, n=10): modest increase in the levels of engraftment; also recorded: significantly higher % of GM and B chimerism
downregulated genes ([5]; Egr1, Ndn, Robo4): significantly downregulation of some genes
upregulated genes ([5]; vs DMSO control, DESEQ padj<0.01, e.g. Sox6, Itga2b, Gata1, Fgf3): significant number of HSC-related genes upregulated; also recorded: significant number of upregulated HSC-related genes
proliferation capacity ([6]; after day 5 of in vitro culture): increase proliferation capacity after day 5
proliferation capacity ([6]; replating equal amounts of KLS after 5 days culture): equal proliferation capacity as the KLS control cells
number of cells ([6]; replating equal amounts of Kit+ cells, 10 days in culture): significant higher number of cells after 10 days in culture
